Assay results: US9937178B2, “Methods of identifying and using MDM2 inhibitors” (DUKE UNIVERSITY, priority 2011, dated 2018)

Tested on: CAS
Assay: Immunoblot of CAS protein levels
Type: cell-based
Method: FIG. 11 is a set of photographs of immunoblots showing CAS degradation in lapatinib-resistant cells. FIG. 11A is an immunoblot for CAS and Actin. BT474 and rBT474 (left) or AU565 and rAU565 cells (right) cultured in the absence of lapatinib for one week were treated with 1 μM lapatinib and the cells were harvested at various time points. FIG. 11B is an immmunoblot for CAS and Actin. rBT474 cells were maintained in the presence of […] lapatinib and the cells were harvested at various time points following removal of lapatinib. FIG. 11C is an immunoblot for FLAG and actin. BT474 and rBT474 cells were transiently transfected with FLAG-tagged CAS and subsequently treated with 50 μg/ml cycloheximide (CHX) and 1 μM lapatinib and the cells were harvested at various time points. FIG. 11D is an immunoblot using HA to analyze ubiquitination of CAS. BT474 and rBT474 (left) or SKBR3 and rSKBR3 cells (right) were co-transfected with FLAG-CAS and HA-Ub. […] After treatment with 10 μM MG 132 for 8 hours, cells were harvested and FLAG-CAS was retrieved by immunoprecipitation. FIG. 11E is an immunoblot for FLAG-tagged proteins retrieved by immunoprecipitation and association with MDM2. H1299 cells were transfected with empty vector, FLAG-CAS^W127A, or FLAG-CAS wild type. FIG. 11F is an immunoblot for CAs after immunoprecipitation for FLAG. H1299 cells were transfected with empty vector, FLAG-CAS^W127A, or FLAG-CAS wild type. Cells were treated with 10 μM MG132 for 3 hours. […] SKBR3 cells were transfected with increasing amounts of MDM2. After 48 hours, cells were harvested and immunoblotted (*non-specific band). FIG. 11H is an immunoblot for CAS. […] FIG. 11I is an immunoblot for MDM2 or CAs after immunoprecipitation with FLAG. BT474 and rBT474 cells were transfected with FLAG-CAS. […] After treatment with 10 μM MG132 for 5 hours, FLAG-CAS was retrieved by immunoprecipitation and association of endogenous MDM2 was analyzed by immunoblotting.

For CS(=O)(=O)CCNCc1ccc(-c2ccc3ncnc(Nc4ccc(OCc5cccc(F)c5)c(Cl)c4)c3c2)o1 [lapatinib], the CAS protein levels (low-HER2 lines non-responsive to lapatinib (e.g., T47D cells)) was “did not alter”, the CAS protein levels (parental cells, 1 μM lapatinib) was “did not affect” and the CAS protein levels (resistant cells, 1 μM lapatinib) was “declined over time”.
